# Literature values as cited in patent US20050187170A1, “Enhancing the efficiency of RNA polymerase inhibitors by using inosine monophosphate dehydrogenase inhibitors” (BIOCRYST PHARMACEUTICALS, INC., priority 2003, published 2005).
# What was measured:
# [1] = tested on: HIV; conditions: human peripheral blood CD4+ lymphocytes and macrophages, established human cell lines
# [2] = target: human IMPDH type I (Homo sapiens, UniProt P20839); conditions: read-out: Ki, IMPDH type I; type I expressed in normal cells; Carr, et al.
# Sequence of human IMPDH type I (P20839 whole entry): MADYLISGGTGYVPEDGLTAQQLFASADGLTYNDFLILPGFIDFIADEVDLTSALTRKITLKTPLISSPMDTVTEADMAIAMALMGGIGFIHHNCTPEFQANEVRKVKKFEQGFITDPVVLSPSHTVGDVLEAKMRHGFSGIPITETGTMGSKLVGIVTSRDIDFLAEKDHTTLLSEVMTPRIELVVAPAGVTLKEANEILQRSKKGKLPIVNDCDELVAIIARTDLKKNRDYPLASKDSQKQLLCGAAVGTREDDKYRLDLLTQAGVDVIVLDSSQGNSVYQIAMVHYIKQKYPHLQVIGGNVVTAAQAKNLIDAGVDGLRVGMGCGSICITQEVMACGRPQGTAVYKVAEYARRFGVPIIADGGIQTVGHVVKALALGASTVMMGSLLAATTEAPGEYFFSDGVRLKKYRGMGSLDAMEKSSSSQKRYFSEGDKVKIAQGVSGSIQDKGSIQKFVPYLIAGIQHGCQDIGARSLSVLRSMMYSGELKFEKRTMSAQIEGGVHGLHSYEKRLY
structure (smiles),measurement,setting,value
"COc1c(C)c2c(c(O)c1C/C=C(\C)CCC(=O)O)C(=O)OC2 [MPA, Mycophenolic acid]",anti-HIV activity in vitro,[1],strong anti-HIV activity
same,Ki,[2],33 to 37 nM
